SMILES strings stand for the structures.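 Values below derive from 48-hour exposures of cells grown in 96-well plates, with endpoints linearly interpolated between the two concentrations bracketing the appropriate inhibition level. GI50 marks 50% less growth.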 The source made the active and inactive calls. Rule as the data show it: active = GI50 up to about 1.1 µM and inactive = higher.

Common to all, as to experiment: growth of human tumour cells (NCI), 48 h
The subject of test [1] is 786-0.
For test [2], the system named is A498.
In test [3] the test system is CCRF-CEM.
Test [4] concerns HCC 2998.
Test [5] concerns HCT-116.
The test system of test [6] is HCT-15.
Test [7] has as its system HOP-62.
In test [8] the test system is MOLT-4.
For test [9], the system named is OVCAR-5.
Test [10] concerns OVCAR-8.
For test [11], the system named is SF-268.
Test [12] relates to SF-295.
In test [13] the test system is SK-MEL-5.
For test [14], the system named is SN12C.
The subject of test [15] is SNB-75.
For test [16], the system named is UACC-257.
Test [17] concerns UO-31.

As for `COc1cc([C@@H]2c3cc4c(cc3[C@@H](NCc3ccccc3F)C3COC(=O)[C@@H]32)OCO4)cc(OC)c1O` (stereo partly specified), the GI50 in test [1] is 2.81 µM (inactive); in test [2] it was 5 µM (inactive); in test [3] it was 1.49 µM (inactive); in test [4], 11.8 µM (inactive); in test [5], 5.27 µM (inactive); in [6], 1.63 µM. Moreover, the GI50 in test [7] was 1.93 µM (inactive); in test [8], 0.425 µM (active); in test [9], 24.8 µM (inactive); in test [10], 6.03 µM (inactive); in test [11], 4.69 µM (inactive); in test [12] it was 1.43 µM (inactive). For the same molecule, the GI50 in test [13] is 0.828 µM (active); in test [14], 2.62 µM (inactive); in test [15], 5.45 µM (inactive); in test [16], 3.1 µM (inactive); in [17], 4.05 µM (inactive).
As to `CCCCCCCCCCCCCCCCOP(=O)(O)Oc1ccc(/C=C\c2ccc(OP(=O)(O)OCCCCCCCCCCCCCCCC)cc2)cc1`, the GI50 is 26.2 µM (inactive) in [1]; 83.9 µM (inactive) in test [2]; 29 µM (inactive) in test [3]; > 100 µM (inactive) in [4]; 54 µM (inactive) in test [5]; more than 100 µM in [6]. Also, the GI50 in test [7] was 38.1 µM (inactive); in test [8], 59 µM (inactive); in test [9] it was > 100 µM (inactive); in test [10], 12.2 µM (inactive); in test [11], 34.9 µM (inactive); in test [12] it was 29.6 µM (inactive). The GI50 in [13] was > 100 µM (inactive); in test [14], > 100 µM (inactive); in test [15], 12 µM (inactive); in test [16] it was > 100 µM (inactive); in test [17], > 100 µM (inactive).
In the case of `Cc1cc(NS(=O)(=O)c2ccc(Nc3c4ccccc4nc4c(C(=O)N5CCN(CCO)CC5)cccc34)cc2)no1`, the GI50 was > 100 µM (inactive) in test [1]; > 100 µM (inactive) in test [2]; 43.9 µM (inactive) in test [3]; 49 µM (inactive) in test [4]; > 100 µM (inactive) in test [5]; more than 100 µM in test [6]. The GI50 in test [7] was > 100 µM (inactive); in test [8], 83.2 µM (inactive); in [9], > 100 µM (inactive); in test [10] it was > 100 µM (inactive); in [11] it was > 100 µM (inactive); in test [12], > 100 µM (inactive). The GI50 in test [13], in [14], in test [15], in test [16] and in test [17] was > 100 µM (inactive) in each case.
As to `CC(=O)CC(=O)Nc1ccccc1[N+](=O)[O-]`, the GI50 was > 100 µM (inactive) in [1]; > 100 µM (inactive) in [2]; > 100 µM (inactive) in test [3]; > 100 µM (inactive) in test [4]; > 100 µM (inactive) in test [5]; more than 100 µM in test [6]. The GI50 in test [7], in test [8], in test [9], in test [10], in test [11] and in test [12] was > 100 µM (inactive) throughout. For the same molecule, the GI50 in test [13], in [14], in [15], in test [16] and in test [17] was > 100 µM (inactive) each time.
In the case of `CC12C/C(=C\c3ccccc3)C(=O)C3C1CCCC32`, the GI50 in [1] is 95.9 µM (inactive); in test [2], > 100 µM (inactive); in [3] it was 33.3 µM (inactive); in test [4], 44.5 µM (inactive); in [5], 67.8 µM (inactive); in [6], more than 100 µM. The GI50 in [7] is > 100 µM (inactive); in test [8], 21.5 µM (inactive); in test [9] it was > 100 µM (inactive); in test [10] it was > 100 µM (inactive); in [11], > 100 µM (inactive); in [12] it was > 100 µM (inactive). In addition, the GI50 was 46 µM (inactive) in test [13]; > 100 µM (inactive) in test [14]; 92.9 µM (inactive) in test [15]; 53 µM (inactive) in test [16]; > 100 µM (inactive) in [17].
Take `Cc1nc2c(o1)/C(=N\c1ccccc1)c1nc(C)oc1/C2=N/c1ccccc1`: the GI50 in [1] was 17.7 µM (inactive); in test [2] it was 1.29 µM (inactive); in test [3], 61.1 µM (inactive); in test [4], 32.4 µM (inactive); in test [5], 19.4 µM (inactive); in [6] it was 23.4 µM. Moreover, the GI50 in test [7] was 13.1 µM (inactive); in test [8], 27.5 µM (inactive); in test [9], 34 µM (inactive); in test [10] it was 15.3 µM (inactive); in test [11] it was 23.7 µM (inactive); in test [12], 23.4 µM (inactive). The GI50 in test [13] is 1.06 µM (active); in test [14], 17.5 µM (inactive); in test [15], 11.7 µM (inactive); in test [16], 29.6 µM (inactive); in [17], 17.2 µM (inactive).
On to `CS(=O)(=O)N(CCC#N)c1ccc(/C=N/NC(=O)CC(=O)Nc2cccc(Cl)c2)cc1`, for which the GI50 in test [1] was > 100 µM (inactive); in test [2] it was > 100 µM (inactive); in test [3], > 100 µM (inactive); in test [4], > 100 µM (inactive); in test [5], > 100 µM (inactive); in test [6] it was more than 100 µM. Besides, the GI50 in test [7], in test [8], in test [9], in test [10], in test [11] and in test [12] was > 100 µM (inactive) each time. Also, the GI50 in test [13], in test [14], in test [15], in test [16] and in test [17] was > 100 µM (inactive) in each case.
With `c1cc2nnsc2s1`, the GI50 in test [1] is 44.5 µM (inactive); in test [2] it was > 100 µM (inactive); in [3] it was > 100 µM (inactive); in [4], > 100 µM (inactive); in [6], more than 100 µM; in test [7], > 100 µM (inactive). In addition, the GI50 in test [8], in test [9], in [10], in test [11], in test [12] and in test [13] was > 100 µM (inactive) throughout. Further, the GI50 in [14], in test [15], in test [16] and in test [17] was > 100 µM (inactive) in each case.
`Cn1c(=O)c2ccc(-c3ccc(Br)cc3)nc2n(C)c1=O`: the GI50 in test [1] was > 100 µM (inactive); in [2] it was > 100 µM (inactive); in test [3], > 100 µM (inactive); in [4] it was > 100 µM (inactive); in [5], 68.9 µM (inactive); in [6] it was more than 100 µM. Also, the GI50 in [7], in test [8], in test [9], in test [10], in test [11] and in test [12] was > 100 µM (inactive) in each case. Also, the GI50 in test [13] was > 100 µM (inactive); in test [15] it was 29.6 µM (inactive); in test [16] it was > 100 µM (inactive); in test [17], > 100 µM (inactive).
